The subject of this assay is C2C12 myotubes. The assay can be described thus: Seahorse mito-stress test, oxygen consumption rate (OCR) in differentiated C2C12 myotubes. The note with it: for basal respiration (OCR): C2C12 myotubes exposed 24 hours, compared to control and vehicle control (PBS), FIG. 1 / FIG. 2. The format is cell-based. The protocol:
The execution of the “Seahorse” experiment as used in this example is explained in more detail in Traba et al. (2016) J. Vis. Exp. (117), e54918 especially in FIG. 1 and text relating thereto, and in Rose S, et al. (2014) Oxidative Stress Induces Mitochondrial Dysfunction in a Subset of Autism Lymphoblastoid Cell Lines in a Well-Matched Case Control Cohort. PLoS ONE 9(1): e85436. doi:10.1371/journal.pone.0085436. Briefly, in the Seahorse essay, the Oxygen Consumption Rate (OCR) is measured before and after the addition of inhibitors to derive several parameters of mitochondrial respiration. Initially, baseline cellular OCR is measured, from which basal respiration can be derived by subtracting non-mitochondrial respiration. Next oligomycin, a complex V inhibitor, is added and the resulting OCR is used to derive ATP-linked respiration (by subtracting the oligomycin rate from baseline cellular OCR) and proton leak respiration (by subtracting non-mitochondrial respiration from the oligomycin rate). Next carbonyl cyanide-p-trifluoromethoxyphenyl-hydrazon (FCCP), a protonophore, is added to collapse the inner membrane gradient, allowing the ETC to function at its maximal rate, and maximal respiratory capacity is derived by subtracting nonmitochondrial respiration from the FCCP rate. […] Mitochondrial reserve capacity is calculated by subtracting basal respiration from maximal respiratory capacity. C2C12 cells were routinely cultured in High Glucose Dulbecco's Modified Eagle's Medium (DMEM) supplemented with 10% (v/v) fetal calf serum (FCS), 2 mM glutamine, 25 mM HEPES pH 7.2 and 1% (v/v/v) pen/strep/amphotericin B at 5% CO2 and 37 degrees Celsius. For Seahorse experiments, C2C12 myoblasts (passage 10-20, ATCC) were plated in the morning in XFe96 Seahorse culture plates at a density of 30.000 cells/well. Cells were kept in the flow cabinet for 1 h before being transferred to the incubator. After approximately 6-8 h cells, culture medium was replaced with C2C12 differentiation medium (DMEM with 2% horse serum). C2C12 cells were allowed to differentiate for 5 to 7 days. On the day before the Seahorse run, myotubes were exposed to different nutrients and/or Extracellular Vesicles (mEVs) for 24 hours. Exposure medium was prepared in C2C12 differentiation medium. Galactose and glucose were supplemented to differentiation medium from 1M stocks in H2O. […] In detail, following calibration and equilibration, plates were analyzed in measure/mix cycles of 3 minutes/2 minutes, respectively, in 180 ul Seahorse assay medium. […] In the final injection the nuclear fluorescent stain, Hoechst (40 uM), was also injected, to allow for cell number quantification. […] Images were analyzed using in-house generated scripts in ImageJ and R for processing data. […]

For the molecule `O=C[C@H](O)[C@@H](O)[C@@H](O)[C@H](O)CO` [Sample 6, Galactose], the “basal respiration (OCR)” value was “increase”.
For `O=C[C@H](O)[C@@H](O)[C@@H](O)[C@H](O)CO` [Sample 7, Galactose], the “basal respiration (OCR)” value was “increase”.
Still for that read-out and setting: to `O=C[C@H](O)[C@@H](O)[C@@H](O)[C@H](O)CO` [Sample 8, Galactose] belongs “increase”.
As to `O=C[C@H](O)[C@@H](O)[C@@H](O)[C@H](O)CO` [galactose, D-galactose], the “effect of a higher concentration on basal respiration” value (C2C12 myotubes, 1.4, 2.75, 5.5 mM, FIG. 2) is listed as “increases”.

The values above are taken from US20260272988A1, “COMPOSITION COMPRISING MILK EXTRACELLULAR VESICLES AND GALACTOSE” (FrieslandCampina Nederland B.V., priority 2023, published 2026).
